This note sets out measurements from patent US7855309B2, “Pesticide benzyloxy- and phenetyl-substituted phenyl-amidine derivatives” (Bayer CropScience AG, priority 2005, dated 2010).

One data set is described as follows: logP by HPLC on reversed-phase column (EEC Directive 79/831 Annex V.A8). The conditions noted are these: HPLC, C18, 40° C., 0.1% aqueous formic acid and acetonitrile. The data set is classed as physicochemical. The protocol:
Temperature: 40° C.; Mobile phases: 0.1% aqueous formic acid and acetonitrile; linear gradient from 10% acetonitrile to 90% acetonitrile.
Calibration was carried out using unbranched alkan-2-ones (comprising 3 to 16 carbon atoms) with known logP values (determination of the logP values by the retention times using linear interpolation between two successive alkanones).
In general, log P refers to a log measure of how a compound divides between an organic and an aqueous phase. Low readings indicate lower lipophilicity, high ones higher lipophilicity. In the case of `COc1cc(COc2cc(C)c(N=CN3CCCCC3)cc2C)ccc1F` [Compound 121], the “log P” value is 2.06. On to `CCN(C)C=Nc1cc(C)c(OCc2ccc(SC)cc2)cc1C` [Compound 84], for which the log partition coefficient (log P) came out at 2.16.

As to `CON=Cc1ccc(COc2cc(C)c(N=CN3CCCCC3)cc2C)cc1` [Compound 103], the “log P” value is reported as 2.21. In the case of `CCN(C)C=Nc1cc(C)c(OCc2ccc(C(C)(C)C)cc2)cc1C` [Compound 8], the “log P” value stood at 2.67. As to `CCN(C)C=Nc1cc(C)c(OCc2cc(OC)c(OC)cc2Cl)cc1C` [Compound 63], the lipophilicity (log P) amounted to 1.99. Turning to `CCN(C)C=Nc1cc(C)c(OCc2ccc(OCc3ccccc3)cc2)cc1C` [Compound 79], the “log P” value is listed as 2.51. `Cc1cc(OCc2ccc(Cl)cc2C(F)(F)F)c(C)cc1N=CN1CCCCC1` [Compound 116]: the “log P” value was determined as 2.55. On the same count and under the same terms, in the case of `CCN(C)C=Nc1cc(C)c(OCc2ccccc2C(F)(F)F)cc1C` [Compound 34] it was 2.14; in that of `CCN(C)C=Nc1cc(C)c(CCc2ccc(C(F)(F)F)cc2)cc1C` [Compound 46], 2.45.

Turning to `CCN(C)C=Nc1cc(C)c(OCc2ccc(Br)cc2)cc1C` [Compound 70], the “log P” value is 2.21. With `Cc1cc(OCc2ccc(OC(F)F)cc2)c(C)cc1N=CN1CCCCC1` [Compound 125], the “log P” value was found to be 2.16. The same measure, in the same setting: then `CCN(C)C=Nc1cc(C)c(OCc2ccc(SC(F)(F)F)cc2)cc1C` [Compound 83], with 2.61. Still for that read-out and setting: then `CCN(C)C=Nc1cc(C)c(OCc2cccc(C)c2)cc1C` [Compound 57], with 2.11; and `Cc1cc(OC(C)c2ccc(Cl)cc2)c(C)cc1N=CN1CCCCC1` (racemic) [Compound 132], with 2.36; and `CCN(C)C=Nc1cc(C)c(OCc2cccc3ccccc23)cc1C` [Compound 76], with 2.45.

Consider `Cc1cc(OCc2ccc(Cl)c(Cl)c2)c(C)cc1N=CN1CCCCC1` [Compound 107], for which the “log P” value was found to be 2.45. In the case of `Cc1cc(OCc2ccccc2SC(F)(F)F)c(C)cc1N=CN1CCCCC1` [Compound 112], the lipophilicity (log P) is listed as 2.48. `CCN(C)C=Nc1cc(C)c(OCc2ccccc2C#N)cc1C` [Compound 58]: the “log P” value turned out to be 1.78. For the compound `Cc1cc(OCc2ccc(Cl)cc2)c(C)cc1N=CN1CCCCC1` [Compound 105], the “log P” value was 2.26. With `CCN(C)C=Nc1cc(C)c(OCc2cc(F)ccc2F)cc1C` [Compound 59], the lipophilicity (log P) is listed as 1.99. `CCN(C)C=Nc1cc(C)c(OCc2ccc3ccccc3c2)cc1C` [Compound 62]: the lipophilicity (log P) is listed as 2.29. Consider `CCN(C)C=Nc1cc(C)c(OCc2ccc(C)cc2)cc1C` [Compound 32], for which the log partition coefficient (log P) is 2.1. On the same count and under the same terms, then `CCN(C)C=Nc1cc(C)c(CCc2cccc(C(F)(F)F)c2)cc1C` [Compound 43], with 2.41. `Cc1cc(OCc2ccc(F)cc2)c(C)cc1N=CN1CCCCC1` [Compound 104]: the lipophilicity (log P) stood at 2.09. In the case of `CCN(C)C=Nc1cc(C)c(CCc2cccc(Cl)c2)cc1C` [Compound 36], the “log P” value is recorded as 2.2.

For the compound `Cc1cc(OCc2cc(F)ccc2F)c(C)cc1N=CN1CCCCC1` [Compound 97], the “log P” value is reported as 2.09. In the case of `Cc1cc(OCc2cccc(OC(F)(F)F)c2)c(C)cc1N=CN1CCCCC1` [Compound 113], the “log P” value is 2.39.

As to `CCN(C)C=Nc1cc(C)c(OCc2ccc(OC(F)(F)F)cc2)cc1C` [Compound 23], the “log P” value came out at 2.38. On the same count and under the same terms, in the case of `Cc1cc(OCc2cccc(Cl)c2)c(C)cc1N=CN1CCCCC1` [Compound 94] it was 2.21; in that of `Cc1cc(OCc2cccc(C#N)c2)c(C)cc1N=CN1CCCCC1` [Compound 120], 1.9; in that of `Cc1cc(C)cc(COc2cc(C)c(N=CN3CCCCC3)cc2C)c1` [Compound 99], 2.42. On to `Cc1cc(OCc2ccccc2OC(F)F)c(C)cc1N=CN1CCCCC1` [Compound 127], for which the “log P” value is 2.13. In the case of `CCN(C)C=Nc1cc(C)c(CCc2ccc(Cl)cc2)cc1C` [Compound 40], the “log P” value came out at 2.27. Turning to `Cc1cc(OCc2ccc(OC(F)(F)F)cc2)c(C)cc1N=CN1CCCCC1` [Compound 122], the lipophilicity (log P) is recorded as 2.42. For the compound `Cc1cc(OCc2ccc(SC(F)(F)F)cc2)c(C)cc1N=CN1CCCCC1` [Compound 115], the “log P” value amounted to 2.55. In the case of `CCN(C)C=Nc1cc(C)c(OCc2cccc(C)c2Cl)cc1C` [Compound 71], the “log P” value is on record as 2.29.

In the case of `CCN(C)C=Nc1cc(C)c(OCc2cc(C)c(C)cc2Cl)cc1C` [Compound 47], the “log P” value is listed as 2.42. For the compound `CCN(C)C=Nc1cc(C)c(OCc2ccccc2I)cc1C` [Compound 87], the “log P” value was determined as 2.29. In the case of `Cc1cc(OCc2ccccc2C(F)(F)F)c(C)cc1N=CN1CCCCC1` [Compound 123], the “log P” value is on record as 2.29.

In the case of `CCN(C)C=Nc1cc(C)c(OCc2cc(C(F)(F)F)cc(C(F)(F)F)c2)cc1C` [Compound 21], the lipophilicity (log P) turned out to be 2.62. With `Cc1cc(OCc2ccc(F)c(F)c2)c(C)cc1N=CN1CCCCC1` [Compound 110], the “log P” value came out at 2.13. With `CCN(C)C=Nc1cc(C)c(OCc2ccccc2F)cc1C` [Compound 11], the lipophilicity (log P) was found to be 1.94. Still for that read-out and setting: in the case of `Cc1cc(OCc2cc(Cl)cc(C(F)(F)F)c2)c(C)cc1N=CN1CCCCC1` [Compound 118] it was 2.61. On the same count and under the same terms, in the case of `CCN(C)C=Nc1cc(C)c(OCc2ccc(C(=O)OC)cc2)cc1C` [Compound 53] it was 1.9; in that of `CCN(C)C=Nc1cc(C)c(OCc2cccc(C)c2F)cc1C` [Compound 77], 2.16; in that of `CCN(C)C=Nc1cc(C)c(CCc2ccccc2Cl)cc1C` [Compound 37], 2.26. For `Cc1cc(OCc2ccccc2F)c(C)cc1N=CN1CCCCC1` [Compound 100], the “log P” value stood at 2.09. As to `CCN(C)C=Nc1cc(C)c(OCc2ccccc2OC(F)F)cc1C` [Compound 26], the “log P” value is 2.03. For the compound `CCN(C)C=Nc1cc(C)c(CCc2ccccc2C(F)(F)F)cc1C` [Compound 45], the “log P” value came out at 2.42.

As for `Cc1ccc(COc2cc(C)c(N=CN3CCCCC3)cc2C)cc1C` [Compound 108], the lipophilicity (log P) was found to be 2.36. Consider `Cc1cc(OCc2ccc(C(F)(F)F)cc2)c(C)cc1N=CN1CCCCC1` [Compound 109], for which the “log P” value is recorded as 2.33. In the case of `CCN(C)C=Nc1cc(C)c(OCc2ccc(Cl)cc2Cl)cc1C` [Compound 55], the log partition coefficient (log P) is recorded as 2.33. As to `Cc1cc(OCc2cccc(SC(F)(F)F)c2)c(C)cc1N=CN1CCCCC1` [Compound 114], the lipophilicity (log P) is given as 2.48. On the same count and under the same terms, then `Cc1cc(OC(C)c2ccccc2Cl)c(C)cc1N=CN1CCCCC1` (racemic) [Compound 130], with 2.36; and `CCN(C)C=Nc1cc(C)c(OCc2ccc(Cl)c(C(F)(F)F)c2)cc1C` [Compound 28], with 2.47. For `Cc1cc(OC(C)c2cccc(Cl)c2)c(C)cc1N=CN1CCCCC1` (racemic) [Compound 131], the log partition coefficient (log P) was found to be 2.36.

With `CCN(C)C=Nc1cc(C)c(OCc2ccccc2Br)cc1C` [Compound 67], the log partition coefficient (log P) was found to be 2.13. For the compound `Cc1cc(OCc2ccc(C(C)(C)C)cc2)c(C)cc1N=CN1CCCCC1` [Compound 95], the “log P” value is 2.64. Still for that read-out and setting: then `CCN(C)C=Nc1cc(C)c(CCc2ccc(OC)cc2)cc1C` [Compound 39], with 2.04. For `Cc1cc(OCc2ccc(Cl)c(C(F)(F)F)c2)c(C)cc1N=CN1CCCCC1` [Compound 129], the log partition coefficient (log P) is listed as 2.51.

As for `Cc1cc(OCc2cc(Cl)cc(Cl)c2)c(C)cc1N=CN1CCCCC1` [Compound 90], the log partition coefficient (log P) is reported as 2.51.

`CCN(C)C=Nc1cc(C)c(OCc2cccc(I)c2)cc1C` [Compound 85]: the lipophilicity (log P) was 2.42. Consider `Cc1cc(OCc2ccccc2OC(F)(F)F)c(C)cc1N=CN1CCCCC1` [Compound 111], for which the log partition coefficient (log P) is reported as 2.33. On the same count and under the same terms, then `CCN(C)C=Nc1cc(C)c(OCc2ccc3c(c2)CCCC3)cc1C` [Compound 75], with 2.55.

On to `Cc1ccc(C)c(COc2cc(C)c(N=CN3CCCCC3)cc2C)c1` [Compound 91], for which the “log P” value was found to be 2.33.

As to `CCN(C)C=Nc1cc(C)c(OCc2ccc(F)c(OC)c2)cc1C` [Compound 22], the log partition coefficient (log P) was 1.92. Take `Cc1cc(OCc2ccccc2Cl)c(C)cc1N=CN1CCCCC1` [Compound 106]: the “log P” value is 2.18. Consider `CCN(C)C=Nc1cc(C)c(OCc2cccc(OC(F)(F)F)c2)cc1C` [Compound 17], for which the “log P” value was 2.33. Take `CCN(C)C=Nc1cc(C)c(OCc2cc3c(cc2Cl)OCO3)cc1C` [Compound 5]: the “log P” value came to 2.05. With `CCN(C)C=Nc1cc(C)c(CCc2ccc(C)cc2)cc1C` [Compound 41], the “log P” value amounted to 2.23.

`CCN(C)C=Nc1cc(C)c(CCc2ccc(F)cc2)cc1C` [Compound 42]: the “log P” value worked out at 2.05. On to `CCN(C)C=Nc1cc(C)c(OCc2ccc(OC(F)F)cc2)cc1C` [Compound 24], for which the “log P” value is reported as 2.06. On to `Cc1cc(OCc2ccc3nsnc3c2)c(C)cc1N=CN1CCCCC1` [Compound 128], for which the “log P” value amounted to 1.99. For the compound `CCN(C)C=Nc1cc(C)c(OCc2ccccc2Cl)cc1C` [Compound 33], the “log P” value turned out to be 2.08.

Staying with this data set, now noted: reversed-phase HPLC column (C18), pH 2.3; read-out: log P (pH 2.3).
Turning to `CCN(C)/C=N/c1cc(C)c(I)cc1C` [Intermediate (V-1), N′-(4-iodo-2,5-dimethylphenyl)-N-ethyl-N-methylimidoformamide], the chromatographic logP amounted to 1.21. Take `CCN(C)/C=N/c1cc(C)c(/C=C/c2ccccc2F)cc1C` (racemic) [Intermediate (VII-1)]: the chromatographic logP amounted to 2.11. On the same count and under the same terms, then `CCN(C)/C=N/c1cc(C)c(CCc2ccccc2F)cc1C` [Compound 44, N-ethyl-N′-{4-[2-(2-fluorophenyl)ethyl]-2,5-dimethylphenyl}-N-methylimidoformamide], with 2.23.

The data set is the same for the next values; noted with them: reversed-phase HPLC column (C18); HPLC, C18, 40° C., 0.1% aqueous formic acid and acetonitrile; read-out: log P.
In the case of `CCN(C)/C=N/c1cc(C)c(CCc2ccccc2F)cc1C` [Compound 44, N-ethyl-N′-{4-[2-(2-fluorophenyl)ethyl]-2,5-dimethylphenyl}-N-methylimidoformamide], the chromatographic logP turned out to be 2.23.
